The target in this experiment is T1, ABCG2 (breast cancer resistance protein, BCRP) (Homo sapiens, UniProt Q9UNQ0).
T1 sequence (Q9UNQ0 1-655): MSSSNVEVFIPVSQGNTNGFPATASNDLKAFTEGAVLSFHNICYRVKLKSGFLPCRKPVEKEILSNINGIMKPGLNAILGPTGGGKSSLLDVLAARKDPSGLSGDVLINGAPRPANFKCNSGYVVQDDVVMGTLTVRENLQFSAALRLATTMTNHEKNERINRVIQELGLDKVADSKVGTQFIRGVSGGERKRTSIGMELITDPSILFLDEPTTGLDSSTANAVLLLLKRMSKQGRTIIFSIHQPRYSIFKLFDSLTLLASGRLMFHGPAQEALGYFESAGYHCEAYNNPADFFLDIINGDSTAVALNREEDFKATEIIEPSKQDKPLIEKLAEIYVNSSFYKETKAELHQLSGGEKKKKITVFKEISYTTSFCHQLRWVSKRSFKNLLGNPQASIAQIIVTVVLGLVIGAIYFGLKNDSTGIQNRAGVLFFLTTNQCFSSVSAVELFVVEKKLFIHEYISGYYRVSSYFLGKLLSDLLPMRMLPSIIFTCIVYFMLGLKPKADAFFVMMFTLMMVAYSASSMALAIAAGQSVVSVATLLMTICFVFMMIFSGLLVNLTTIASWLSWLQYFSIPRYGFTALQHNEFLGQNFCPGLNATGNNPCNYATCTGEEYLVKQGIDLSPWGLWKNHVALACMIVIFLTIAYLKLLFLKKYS
In words: Hoechst […] efflux inhibition by flow cytometry in HEK293-ABCG2 cells; 5D3 conformational antibody shift; kinetics with mitoxantrone. The format is cell-based.

The structures appear in SMILES notation.

For the compound `Cc1cccc(C)c1OCC(=O)N[C@@H](Cc1ccccc1)[C@@H](O)C[C@H](Cc1ccccc1)NC(=O)[C@H](C(C)C)N1CCCNC1=O` [LPV, lopinavir], the IC50 worked out at 23.4 µM.

Values taken from PMC10776880 (EXCLI Journal, 2023).
